Results from article PMC7366380, “Discovery of a Potent and Selective Covalent Inhibitor and Activity-Based Probe for the Deubiquitylating Enzyme UCHL1, with Antifibrotic Activity” (Journal of the American Chemical Society, 2020).

Experiments:
UCHL1 = target: T1, UCHL1 (Homo sapiens, UniProt P09936); assay: biochemical
T1 sequence (P09936 1-223): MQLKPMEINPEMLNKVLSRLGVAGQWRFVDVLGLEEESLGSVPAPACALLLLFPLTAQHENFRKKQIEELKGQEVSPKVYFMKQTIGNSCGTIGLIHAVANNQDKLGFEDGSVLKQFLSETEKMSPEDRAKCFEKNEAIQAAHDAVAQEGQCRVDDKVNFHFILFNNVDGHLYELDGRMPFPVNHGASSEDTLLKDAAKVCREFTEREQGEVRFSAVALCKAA

USP21 = target: T2, USP21 (Homo sapiens, UniProt Q9UK80); assay: biochemical
T2 sequence (Q9UK80 1-565): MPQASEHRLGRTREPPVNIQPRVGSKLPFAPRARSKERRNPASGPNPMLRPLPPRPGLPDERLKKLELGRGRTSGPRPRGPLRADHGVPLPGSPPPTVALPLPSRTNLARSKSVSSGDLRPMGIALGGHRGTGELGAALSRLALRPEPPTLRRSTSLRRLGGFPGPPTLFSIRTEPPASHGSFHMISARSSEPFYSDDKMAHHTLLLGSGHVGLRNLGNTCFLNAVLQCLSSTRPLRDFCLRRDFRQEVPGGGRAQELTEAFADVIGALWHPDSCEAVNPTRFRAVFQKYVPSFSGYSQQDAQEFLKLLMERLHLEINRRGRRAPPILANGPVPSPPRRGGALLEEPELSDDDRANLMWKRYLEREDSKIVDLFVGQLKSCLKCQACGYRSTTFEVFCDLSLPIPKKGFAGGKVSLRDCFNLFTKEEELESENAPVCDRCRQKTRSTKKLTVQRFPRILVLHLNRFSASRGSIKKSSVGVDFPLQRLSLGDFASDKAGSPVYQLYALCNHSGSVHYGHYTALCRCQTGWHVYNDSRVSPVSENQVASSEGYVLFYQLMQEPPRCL

UCHL3 = target: T3, UCHL3 (Homo sapiens, UniProt P15374); assay: Biochemical DUB selectivity profiling assay: UCHL3; conditions: Ub-Lys-TAMRA 50 nM, buffer A; read-out: Biochemical IC50 range, UCHL3
T3 sequence (P15374 1-230): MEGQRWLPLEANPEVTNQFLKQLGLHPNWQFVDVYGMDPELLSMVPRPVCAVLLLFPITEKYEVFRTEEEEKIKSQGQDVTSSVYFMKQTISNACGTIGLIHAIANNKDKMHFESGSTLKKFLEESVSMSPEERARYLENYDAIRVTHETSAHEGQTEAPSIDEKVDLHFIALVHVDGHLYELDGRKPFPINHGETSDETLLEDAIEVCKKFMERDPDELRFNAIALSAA
Procedure: (§1) DUB Assay Substrate Substrate
(§2) Buffer Concentration (nM) […]
(§3) Sepharose® 4B resin (GE Healthcare).
(§4) 10 kDa molecular weight cut-off (MWCO)).
(§5) Fractions containing protein
(§6) Protein concentration was […]
(§7) reaction volume of 21 μL. […]
(§8) compound (final concentration 5 nM).
(§9) IC50 values were determined
(§10) Biochemical DUB selectivity profiling assays […]
(§11) in 40 µL total reaction volume.

USP4 = target: T4, USP4 (Homo sapiens, UniProt Q13107); assay: Biochemical DUB selectivity profiling assay: USP4; conditions: Ub-Lys-TAMRA 50 nM, buffer A; read-out: Biochemical IC50 range, USP4
T4 sequence (Q13107 1-963): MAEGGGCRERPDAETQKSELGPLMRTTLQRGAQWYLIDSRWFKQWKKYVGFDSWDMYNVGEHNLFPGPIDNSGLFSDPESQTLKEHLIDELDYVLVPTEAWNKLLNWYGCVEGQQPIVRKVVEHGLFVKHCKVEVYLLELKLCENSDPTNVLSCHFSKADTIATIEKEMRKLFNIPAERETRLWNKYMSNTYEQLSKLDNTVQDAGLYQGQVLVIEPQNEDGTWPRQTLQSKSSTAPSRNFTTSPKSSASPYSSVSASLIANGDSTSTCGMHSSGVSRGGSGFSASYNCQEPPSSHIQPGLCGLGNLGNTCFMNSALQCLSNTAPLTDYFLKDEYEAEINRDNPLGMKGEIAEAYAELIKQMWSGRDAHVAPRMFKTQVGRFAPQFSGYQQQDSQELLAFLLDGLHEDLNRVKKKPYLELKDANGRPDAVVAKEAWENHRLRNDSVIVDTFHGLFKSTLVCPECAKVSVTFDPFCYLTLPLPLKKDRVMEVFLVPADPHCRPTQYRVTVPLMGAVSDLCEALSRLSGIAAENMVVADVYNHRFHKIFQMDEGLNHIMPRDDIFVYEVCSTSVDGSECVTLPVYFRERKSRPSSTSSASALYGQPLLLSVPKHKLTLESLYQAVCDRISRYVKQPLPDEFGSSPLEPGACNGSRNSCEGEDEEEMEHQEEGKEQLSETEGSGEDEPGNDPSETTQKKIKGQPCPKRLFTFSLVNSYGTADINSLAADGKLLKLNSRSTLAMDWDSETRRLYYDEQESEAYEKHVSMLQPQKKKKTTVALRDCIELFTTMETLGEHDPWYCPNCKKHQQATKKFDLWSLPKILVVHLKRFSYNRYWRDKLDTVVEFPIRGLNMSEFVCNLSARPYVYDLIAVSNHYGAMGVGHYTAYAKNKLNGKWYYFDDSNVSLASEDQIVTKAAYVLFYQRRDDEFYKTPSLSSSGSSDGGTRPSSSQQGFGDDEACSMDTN
Procedure: as §1, §2, §3, §4, §5, §6, §7, §8, §9, §10, §11

[1] = Biochemical IC50 range, UCHL1, Ub-Lys-TAMRA 50 nM, buffer A
[2] = UCHL1 IC50 (FP, 95% CI), UCHL1 5 nM, 30 min preincubation, Ub-Lys-TAMRA 50 nM

Row | IC50 (UCHL1; [1]) [µM] | IC50 (UCHL1; [2]) [µM] | IC50 (USP21) [µM] | IC50 (UCHL3) [µM] | IC50 (USP4) [µM] | IC50 (UCHL1; UCHL1 IC50 (FP), UCHL1 5 nM, 30 min preincubation, Ub-Lys-TAMRA 50 nM, bound = maximum assay concentration) [µM] | Structure (SMILES)
1 | < 0.1 | 0.09 | > 10 | 1 to 10 | > 10 | – | N#CN1CCC[C@H]1C(=O)N1CCc2c(-c3c[nH]c4ncccc34)cccc21 [Compound 1]
2 | < 0.1 | 0.038 | – | 1 to 10 | > 10 | – | C#Cc1cnc2[nH]cc(-c3cccc4c3CCN4C(=O)[C@@H]3CCCN3C#N)c2c1 [Compound 2]
3 | > 10 | – | > 10 | > 10 | > 10 | > 100 | N#CN1CCC[C@@H]1C(=O)N1CCc2c(-c3c[nH]c4ncccc34)cccc21 [Compound 3]

Row | Structure (SMILES) | IC50 (UCHL1; [1]) [µM] | IC50 (UCHL1; [2]) [µM] | IC50 (USP21) [µM] | IC50 (UCHL3) [µM] | IC50 (USP4) [µM] | IC50 (UCHL1; UCHL1 IC50 (FP), UCHL1 5 nM, 30 min preincubation, Ub-Lys-TAMRA 50 nM, bound = maximum assay concentration) [µM]
4 | CC(=O)O/N=C1\C(=O)N(Cc2cc(Cl)ccc2Cl)c2ccc(Cl)cc21 [LDN-57444, reference compound] | – | – | > 10 | > 10 | > 10 | –
